Measurements taken from paper PMC6199744, “Development of Chemical Proteomics for the Folateome and Analysis of the Kinetoplastid Folateome” (ACS Infectious Diseases, 2018).
Read-outs that look alike come from different tables or passages of the source.

Tests used:
Format in all cases: binding
[1] = target: T1, HeLa cell extract proteins (Homo sapiens, UniProt Q15386)
T1 construct: endogenous in cells; host or cells: HeLa cell extract
T1 sequence (Q15386 1-1083): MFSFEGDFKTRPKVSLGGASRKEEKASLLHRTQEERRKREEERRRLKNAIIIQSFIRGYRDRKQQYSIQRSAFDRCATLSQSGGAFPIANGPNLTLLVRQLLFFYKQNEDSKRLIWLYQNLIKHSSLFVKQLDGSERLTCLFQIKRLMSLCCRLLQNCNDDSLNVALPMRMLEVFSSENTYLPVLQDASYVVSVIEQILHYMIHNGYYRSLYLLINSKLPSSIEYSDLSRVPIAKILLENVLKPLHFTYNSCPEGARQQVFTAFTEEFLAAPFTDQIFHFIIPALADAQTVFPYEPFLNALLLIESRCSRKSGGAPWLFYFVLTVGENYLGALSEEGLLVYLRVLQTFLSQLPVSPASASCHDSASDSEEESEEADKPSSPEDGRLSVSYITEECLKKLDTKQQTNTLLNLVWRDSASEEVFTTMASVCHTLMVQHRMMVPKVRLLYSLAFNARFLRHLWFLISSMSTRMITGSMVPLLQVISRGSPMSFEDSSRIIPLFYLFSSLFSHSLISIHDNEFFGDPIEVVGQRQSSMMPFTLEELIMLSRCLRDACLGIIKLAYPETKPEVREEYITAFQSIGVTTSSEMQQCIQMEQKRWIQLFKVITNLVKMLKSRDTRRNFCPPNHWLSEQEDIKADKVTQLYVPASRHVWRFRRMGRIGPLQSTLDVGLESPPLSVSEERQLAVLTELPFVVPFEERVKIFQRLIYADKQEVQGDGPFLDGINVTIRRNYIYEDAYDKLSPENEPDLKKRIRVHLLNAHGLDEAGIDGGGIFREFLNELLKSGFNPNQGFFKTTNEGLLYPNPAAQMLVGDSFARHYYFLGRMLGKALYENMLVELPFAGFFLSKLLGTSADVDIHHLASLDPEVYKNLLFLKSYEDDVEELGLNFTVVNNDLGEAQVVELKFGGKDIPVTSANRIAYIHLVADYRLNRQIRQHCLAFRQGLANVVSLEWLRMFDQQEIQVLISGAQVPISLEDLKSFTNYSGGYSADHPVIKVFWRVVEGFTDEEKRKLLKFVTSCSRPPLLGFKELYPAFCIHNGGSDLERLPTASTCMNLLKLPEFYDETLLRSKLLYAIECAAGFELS

[2] = target: T2, HeLa cell extract proteins (Homo sapiens, UniProt P51570)
T2 construct: endogenous in cells; host or cells: HeLa cell extract

[3] = target: T3, HeLa cell extract proteins (Homo sapiens, UniProt P69905)
T3 construct: endogenous in cells; host or cells: HeLa cell extract

[4] = target: T4, HeLa cell extract proteins (Homo sapiens, UniProt Q99805)
T4 construct: endogenous in cells; host or cells: HeLa cell extract

[5] = target: T5, HeLa cell extract proteins (Homo sapiens, UniProt O00170)
T5 construct: endogenous in cells; host or cells: HeLa cell extract
T5 sequence (O00170 1-330): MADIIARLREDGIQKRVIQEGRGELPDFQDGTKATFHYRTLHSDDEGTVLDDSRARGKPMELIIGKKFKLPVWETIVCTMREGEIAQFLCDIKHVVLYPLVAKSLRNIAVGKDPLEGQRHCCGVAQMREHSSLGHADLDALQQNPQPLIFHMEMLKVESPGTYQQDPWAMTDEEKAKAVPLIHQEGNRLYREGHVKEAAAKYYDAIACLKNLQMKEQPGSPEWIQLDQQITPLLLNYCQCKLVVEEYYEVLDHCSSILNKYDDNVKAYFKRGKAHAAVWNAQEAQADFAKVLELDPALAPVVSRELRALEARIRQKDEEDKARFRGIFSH

[6] = target: T6, HeLa cell extract proteins (Homo sapiens, UniProt Q93008)
T6 construct: endogenous in cells; host or cells: HeLa cell extract

[7] = target: T7, HeLa cell extract proteins (Homo sapiens, UniProt Q9Y5A9); conditions: captured protein YTHDF2; HeLa
T7 construct: endogenous in cells; host or cells: HeLa cell extract
T7 sequence (Q9Y5A9 1-579): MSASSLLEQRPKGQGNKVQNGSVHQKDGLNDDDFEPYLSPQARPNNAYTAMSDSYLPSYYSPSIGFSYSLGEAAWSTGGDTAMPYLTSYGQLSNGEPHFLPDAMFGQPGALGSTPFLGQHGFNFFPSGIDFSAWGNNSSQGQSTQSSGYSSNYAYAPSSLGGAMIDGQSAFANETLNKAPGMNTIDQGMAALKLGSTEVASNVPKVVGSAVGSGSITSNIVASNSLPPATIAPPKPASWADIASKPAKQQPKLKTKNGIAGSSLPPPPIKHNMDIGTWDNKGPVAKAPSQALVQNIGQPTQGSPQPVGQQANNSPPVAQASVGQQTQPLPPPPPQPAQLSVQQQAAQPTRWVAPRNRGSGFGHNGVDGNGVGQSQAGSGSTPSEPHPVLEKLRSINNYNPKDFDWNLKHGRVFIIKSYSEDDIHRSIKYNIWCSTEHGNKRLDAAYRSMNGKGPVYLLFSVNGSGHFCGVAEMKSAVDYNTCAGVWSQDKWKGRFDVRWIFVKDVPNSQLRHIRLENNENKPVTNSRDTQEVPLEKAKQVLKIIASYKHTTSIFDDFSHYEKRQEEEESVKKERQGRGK

[8] = target: T8, HeLa cell extract proteins (Homo sapiens, UniProt Q969Y2); conditions: captured protein GTPBP3; HeLa
T8 construct: endogenous in cells; host or cells: HeLa cell extract
T8 sequence (Q969Y2 21-492): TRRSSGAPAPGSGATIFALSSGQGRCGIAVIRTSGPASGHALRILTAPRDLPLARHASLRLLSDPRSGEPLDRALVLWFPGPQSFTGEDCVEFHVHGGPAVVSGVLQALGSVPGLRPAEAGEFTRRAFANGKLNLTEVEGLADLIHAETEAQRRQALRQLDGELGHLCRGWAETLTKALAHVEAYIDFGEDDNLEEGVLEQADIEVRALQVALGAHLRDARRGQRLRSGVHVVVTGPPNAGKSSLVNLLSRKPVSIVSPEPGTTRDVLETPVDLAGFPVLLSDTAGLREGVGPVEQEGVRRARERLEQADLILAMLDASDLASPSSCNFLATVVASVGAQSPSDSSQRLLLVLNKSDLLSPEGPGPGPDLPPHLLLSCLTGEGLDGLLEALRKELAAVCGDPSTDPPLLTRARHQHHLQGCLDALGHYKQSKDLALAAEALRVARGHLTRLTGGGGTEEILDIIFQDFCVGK

[9] = HeLa, protein GALK1 (CDNA FLJ56840, HIGHLY SIMILAR TO GALACTOKINASE)
[10] = HeLa, protein HBA1 (HEMOGLOBIN SUBUNIT ALPHA)

T3 sequence (P69905 whole entry): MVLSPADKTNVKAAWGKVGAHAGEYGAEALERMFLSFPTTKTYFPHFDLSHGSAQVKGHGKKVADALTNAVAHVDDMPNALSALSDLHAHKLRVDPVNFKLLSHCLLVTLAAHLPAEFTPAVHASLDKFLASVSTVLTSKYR
T6 sequence (Q93008 whole entry): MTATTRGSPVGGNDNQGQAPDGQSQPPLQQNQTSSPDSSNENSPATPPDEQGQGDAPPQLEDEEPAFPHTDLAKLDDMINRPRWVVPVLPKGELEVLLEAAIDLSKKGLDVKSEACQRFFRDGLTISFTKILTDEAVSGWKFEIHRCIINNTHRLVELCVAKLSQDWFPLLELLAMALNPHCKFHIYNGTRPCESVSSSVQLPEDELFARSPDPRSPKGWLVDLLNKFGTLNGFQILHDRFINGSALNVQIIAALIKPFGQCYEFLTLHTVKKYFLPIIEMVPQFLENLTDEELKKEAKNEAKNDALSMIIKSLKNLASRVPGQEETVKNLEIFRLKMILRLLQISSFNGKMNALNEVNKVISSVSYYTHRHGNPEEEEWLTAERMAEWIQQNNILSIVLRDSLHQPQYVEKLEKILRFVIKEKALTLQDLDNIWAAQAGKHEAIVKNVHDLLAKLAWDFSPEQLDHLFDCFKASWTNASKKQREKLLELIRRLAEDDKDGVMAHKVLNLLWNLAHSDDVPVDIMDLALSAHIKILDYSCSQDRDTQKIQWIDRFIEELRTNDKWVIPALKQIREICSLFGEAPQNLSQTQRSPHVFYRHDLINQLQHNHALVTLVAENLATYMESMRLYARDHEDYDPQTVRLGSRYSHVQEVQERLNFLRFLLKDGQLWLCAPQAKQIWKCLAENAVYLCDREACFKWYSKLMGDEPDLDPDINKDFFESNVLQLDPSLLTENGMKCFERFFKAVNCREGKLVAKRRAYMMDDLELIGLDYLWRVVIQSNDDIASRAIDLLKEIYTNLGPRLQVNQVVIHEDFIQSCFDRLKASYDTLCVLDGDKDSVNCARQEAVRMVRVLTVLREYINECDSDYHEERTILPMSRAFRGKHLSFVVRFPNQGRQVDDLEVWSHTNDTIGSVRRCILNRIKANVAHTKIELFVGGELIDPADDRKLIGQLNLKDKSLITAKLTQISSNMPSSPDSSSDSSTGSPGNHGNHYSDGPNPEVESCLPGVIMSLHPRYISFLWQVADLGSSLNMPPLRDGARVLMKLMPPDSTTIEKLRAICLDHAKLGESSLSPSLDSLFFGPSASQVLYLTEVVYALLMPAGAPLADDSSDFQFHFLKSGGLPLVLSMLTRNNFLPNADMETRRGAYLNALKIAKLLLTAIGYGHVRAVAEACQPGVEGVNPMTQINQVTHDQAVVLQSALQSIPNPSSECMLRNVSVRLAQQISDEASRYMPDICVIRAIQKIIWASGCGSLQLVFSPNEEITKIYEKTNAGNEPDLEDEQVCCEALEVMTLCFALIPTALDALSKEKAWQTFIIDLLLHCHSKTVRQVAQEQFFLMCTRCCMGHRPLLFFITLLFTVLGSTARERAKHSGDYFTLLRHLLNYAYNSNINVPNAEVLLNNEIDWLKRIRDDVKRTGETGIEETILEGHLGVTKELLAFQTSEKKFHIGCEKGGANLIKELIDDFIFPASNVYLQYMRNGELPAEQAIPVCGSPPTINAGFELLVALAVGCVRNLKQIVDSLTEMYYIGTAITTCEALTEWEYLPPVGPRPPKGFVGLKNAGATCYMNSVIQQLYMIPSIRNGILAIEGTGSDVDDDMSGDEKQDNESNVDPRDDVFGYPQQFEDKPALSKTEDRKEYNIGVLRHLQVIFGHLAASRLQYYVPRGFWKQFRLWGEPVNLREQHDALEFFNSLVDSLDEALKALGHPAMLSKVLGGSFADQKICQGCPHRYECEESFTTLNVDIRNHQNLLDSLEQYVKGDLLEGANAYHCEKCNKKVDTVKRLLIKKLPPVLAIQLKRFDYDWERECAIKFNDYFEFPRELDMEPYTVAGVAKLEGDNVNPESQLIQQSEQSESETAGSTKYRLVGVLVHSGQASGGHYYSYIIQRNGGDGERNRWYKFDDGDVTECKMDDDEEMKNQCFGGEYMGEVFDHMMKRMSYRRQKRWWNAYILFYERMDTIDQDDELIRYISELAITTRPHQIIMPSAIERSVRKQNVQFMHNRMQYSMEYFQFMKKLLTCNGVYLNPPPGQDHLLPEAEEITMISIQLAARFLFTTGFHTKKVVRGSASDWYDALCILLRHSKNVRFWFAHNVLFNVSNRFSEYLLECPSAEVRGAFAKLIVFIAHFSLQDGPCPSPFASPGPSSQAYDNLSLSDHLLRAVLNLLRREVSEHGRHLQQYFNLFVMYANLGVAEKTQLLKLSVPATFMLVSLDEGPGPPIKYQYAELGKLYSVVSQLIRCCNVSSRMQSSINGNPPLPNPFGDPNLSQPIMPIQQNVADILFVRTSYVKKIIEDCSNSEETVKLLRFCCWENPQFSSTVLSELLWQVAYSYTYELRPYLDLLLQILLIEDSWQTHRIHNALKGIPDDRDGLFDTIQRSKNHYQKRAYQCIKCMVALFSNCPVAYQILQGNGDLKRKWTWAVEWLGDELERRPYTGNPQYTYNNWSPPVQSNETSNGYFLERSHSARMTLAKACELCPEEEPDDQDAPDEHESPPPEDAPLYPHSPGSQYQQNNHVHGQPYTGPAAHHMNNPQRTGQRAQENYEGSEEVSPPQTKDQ
T2 sequence (P51570 whole entry): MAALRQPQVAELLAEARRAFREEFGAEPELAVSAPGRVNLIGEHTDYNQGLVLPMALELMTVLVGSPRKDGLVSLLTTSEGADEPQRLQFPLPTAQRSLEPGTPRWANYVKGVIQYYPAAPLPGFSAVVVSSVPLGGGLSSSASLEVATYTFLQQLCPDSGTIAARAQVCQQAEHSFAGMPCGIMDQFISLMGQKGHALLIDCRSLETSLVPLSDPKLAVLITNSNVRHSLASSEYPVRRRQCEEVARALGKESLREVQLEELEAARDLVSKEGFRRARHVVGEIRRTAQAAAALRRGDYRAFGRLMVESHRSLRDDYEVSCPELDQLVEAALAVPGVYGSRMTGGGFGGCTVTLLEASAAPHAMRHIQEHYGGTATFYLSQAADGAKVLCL
T4 sequence (Q99805 29-663): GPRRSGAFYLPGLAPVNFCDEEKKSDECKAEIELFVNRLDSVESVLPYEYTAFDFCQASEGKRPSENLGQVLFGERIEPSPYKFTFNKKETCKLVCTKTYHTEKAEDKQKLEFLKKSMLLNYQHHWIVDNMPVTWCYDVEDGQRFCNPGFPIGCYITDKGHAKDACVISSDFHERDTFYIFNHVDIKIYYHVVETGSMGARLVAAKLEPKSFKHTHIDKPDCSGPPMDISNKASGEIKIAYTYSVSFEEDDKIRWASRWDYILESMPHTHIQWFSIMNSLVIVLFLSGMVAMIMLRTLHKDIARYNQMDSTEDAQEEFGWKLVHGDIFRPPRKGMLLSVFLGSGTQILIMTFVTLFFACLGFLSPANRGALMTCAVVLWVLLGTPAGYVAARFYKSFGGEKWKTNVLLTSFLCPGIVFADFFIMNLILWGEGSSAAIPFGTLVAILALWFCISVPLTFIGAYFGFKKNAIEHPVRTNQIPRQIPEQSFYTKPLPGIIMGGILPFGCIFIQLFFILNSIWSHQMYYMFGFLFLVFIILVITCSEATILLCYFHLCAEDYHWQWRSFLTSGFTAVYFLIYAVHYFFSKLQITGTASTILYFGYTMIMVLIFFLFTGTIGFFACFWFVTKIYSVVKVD

Compound	fold changes relative to vehicle control ([1]; HeLa, protein UBE3C)	fold changes relative to vehicle control [2, 9]	fold changes relative to vehicle control [3, 10]	fold changes relative to vehicle control ([4]; HeLa, protein TM9SF2)	fold changes relative to vehicle control ([5]; HeLa, captured protein AIP)	fold changes relative to vehicle control ([6]; HeLa, captured protein USP9X)	fold changes relative to vehicle control [7]	fold changes relative to vehicle control [8]	also measured
Nc1nc2c(c(=O)[nH]1)N(C=O)C(CNc1ccc(C(=O)N[C@@H](CCC(=O)O)C(=O)O)cc1)CN2 (stereo partly drawn) [LEU, leucovorin]	0.91	1.18	1.29	0.74	0.79	1.13			
Nc1nc2[nH]cc(CCc3ccc(C(=O)N[C@@H](CCC(=O)O)C(=O)O)cc3)c2c(=O)[nH]1 [PTX, pemetrexed]									fold changes relative to vehicle control [1]: 0.96; fold changes relative to vehicle control [2]: 1.27; fold changes relative to vehicle control [3]: 0.97; fold changes relative to vehicle control [4]: 0.76; fold changes relative to vehicle control [5]: 0.93; fold changes relative to vehicle control [6]: 1.17
CCCCCCOc1ccc(Cc2cnc(N)nc2N)cc1 [compound 1]							0.79	0.4	
CCCCCCOc1cccc(Cc2cnc(N)nc2N)c1 [compound 2]							1.16	1.05	
Nc1nc2cccc(-c3ccccc3)c2n1Cc1ccc(Cl)c(Cl)c1 [compound 3]							1.01	0.95	
NCCOCCOCC(=O)Nc1nc2ncc(CNc3ccc(C(=O)NC(CCC(=O)O)C(=O)O)cc3)nc2c(=O)[nH]1 (stereo not drawn) [compound 6]	1.01	1.12	1.05	0.84	0.92	1.31			
NCCCNc1ccc(C(=O)NC(CCC(=O)O)C(=O)O)cc1 (stereo not drawn) [compound 7]	1.04	1.2	0.76	0.82	0.99	1.26			
